Measured values from patent publication US20230381142A1, “ANTILEISHMANIAL COMPOUNDS, COMPOSITIONS AND USE THEREOF” (TRUSTEES OF BOSTON UNIVERSITY, priority 2022, published 2023).
pEC50: −log10 of the molar value. In brackets after ≈: the same amount, converted by molar mass.

What was measured:
[1] = Artificial membrane permeability (AMP); assay type: in vitro ADME; settings: PAMPA, pH 7.4
Method: Passive permeability of compounds via rate of permeation through an artificial phospholipid membrane at pH 7.4 was measured in a high-throughput format, in duplicate. A solution of 1.8% phosphatidylcholine in 1% decane was added to a 96-well Millicell filter plate along with 250 μL of 50 mM phosphate buffer, pH 7.4 on the donor side, and 100 μL of the same buffer solution on the receiver side. The assay plate was shaken for 45 minutes before adding test compounds. Test compounds were then added to the filter plate and then incubated at room temperature with shaking for three hours. The donor and receiver solutions were next transferred to a 384-well plate for analysis by LC/MS.

host THP-1 macrophages = test: GSK inMac assay, host cell toxicity readout (LD MAC); assay type: cell-based, human; settings: Homo sapiens, THP-1, cytotoxicity against host THP-1 macrophages
In short: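 MAC EC50 reflects THP-1 host cell counts, measured within GSK's inMac L. donovani infection assay that also scores intracellular amastigotes and infected-cell percentage.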

HepG2 cells = test: HepG2 cytotoxicity; assay type: cell-based; settings: Homo sapiens; toxicity against HepG2 cells
Method: Given the literature precedents described above and the apparent narrow tolerance for R^3 substitutions observed in the primary screen compounds, a thorough and methodical assessment was undertaken of tolerated groups at the three points of diversity (R^1/R^2/R^3) for the core. At this stage of the project, all analogues were assessed using a battery of assays performed in-house at GlaxoSmithKline. For antileishmanial activity, GSK's inMac assay was utilized. This assay provides two readouts of compound potency: average number of intracellular amastigotes per infected cell (AMMAC) EC50, percentage of infected cells per well (INFCELL) EC50, as well as a toxicity output derived from the number of host cells (MAC EC50). In addition, compounds were assessed for toxicity against HepG2 cells (HEPG2 EC50). Here, AMMAC EC50 values were focused on for relative potency assessments. […] It should be noted that for all compounds assessed in this project, the measured toxicity against THP-1 macrophages either equaled or exceeded that of HepG2 hepatocytes, therefore the MAC SI is used here as the more conservative estimate of therapeutic index.

[2] = tested on: L. donovani intracellular amastigotes infecting THP-1 macrophages; test: GSK intramacrophage L. donovani assay (LD AMMAC, inMac; Assay Conditions C); assay type: cell-based; settings: Leishmania donovani; growth inhibition of L. donovani intracellular amastigotes infecting THP-1 macrophages; read-out: LD AMMAC EC50
In short: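 EC50 values come from counting amastigotes per infected THP-1 macrophage (AMMAC). Parallel read-outs give percentage of infected cells per well (INFCELL) and a macrophage-number toxicity EC50 (MAC).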

[3] = Property forecast index (PFI = ChromLogD7.4 + aromatic rings); assay type: physicochemical
Method: At the outset of the project, compound 1 was evaluated against GSK's established criteria for antileishmanial compound advancement (Table 2). Some of these assessments were performed on racemic 1, while chiral separation was also pursued of the 1 racemate to determine the active enantiomer. […] Based on this promising profile, it progressed into medicinal chemistry optimization to better understand structure-activity relationships (SAR) toward improved potency, as well as structure-property relationships (SPR) with an eye toward reducing PFI and plasma protein binding.

human serum albumin = human serum albumin (Homo sapiens, UniProt P02768); test: Human serum albumin (HSA) binding, chromatographic; assay type: in vitro ADME
Method: The percentage of compound bound to human serum albumin was measured using a chromatographic method as described. Briefly, each compound was assayed on an immobilized HSA column and gradient retention times measured, with chromatographic peak detection by UV. Each retention time was then converted to a % HSA bound value using a calibration set of compounds with a known % HSA binding.

[4] = Kinetic aqueous solubility by CLND; assay type: physicochemical; settings: kinetic from dmso stock, high-throughput CLND
Method: Solubility of compounds using ChemiLuminescent Nitrogen Detection (CLND) was measured as described. Solubility of compounds using Charged Aerosol Detection (CAD) was measured as described. Solubility of solid compounds in Fasted Simulated Intestinal Fluid (FaSSIF) was measured as described.

[5] = aqueous medium (not further specified)

human serum albumin, sequence (P02768 25-609): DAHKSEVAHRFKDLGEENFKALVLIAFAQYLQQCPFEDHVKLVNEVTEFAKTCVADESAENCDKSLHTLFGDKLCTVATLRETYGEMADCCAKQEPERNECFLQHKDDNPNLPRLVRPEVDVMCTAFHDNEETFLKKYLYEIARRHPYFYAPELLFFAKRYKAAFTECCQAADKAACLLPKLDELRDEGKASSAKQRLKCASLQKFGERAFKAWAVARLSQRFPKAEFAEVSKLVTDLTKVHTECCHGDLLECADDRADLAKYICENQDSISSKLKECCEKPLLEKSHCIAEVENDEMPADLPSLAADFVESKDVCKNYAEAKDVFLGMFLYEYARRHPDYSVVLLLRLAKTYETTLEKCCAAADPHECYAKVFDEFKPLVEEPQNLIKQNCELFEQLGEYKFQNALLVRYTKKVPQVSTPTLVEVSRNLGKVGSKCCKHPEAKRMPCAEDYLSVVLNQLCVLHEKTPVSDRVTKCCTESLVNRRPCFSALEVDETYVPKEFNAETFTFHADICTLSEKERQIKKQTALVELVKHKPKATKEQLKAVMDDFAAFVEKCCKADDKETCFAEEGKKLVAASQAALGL

## COc1cccc(N2C(=O)c3[nH]nc(CC(C)C)c3C2c2ccc(F)cc2)c1 (centres unmarked) [Compound 30]
[1]
  Papp at 3 h: 37 ×10⁻⁶ cm/s
Host THP-1 macrophages
  pEC50: 4.50
HepG2 cells
  pEC50: 4.20
[2]
  pEC50: 4.90
[3]
  PFI: 8.4
Human serum albumin
  HSA Binding: 97.3%
[4]; [5]
  solubility: 64 µM (≈ 24.3 µg/mL)

## COc1ccc(N2C(=O)c3[nH]nc(CC(C)C)c3C2c2ccc(F)cc2)cn1 (centres unmarked) [Compound 31]
[1]
  Papp at 3 h: 26 ×10⁻⁶ cm/s
Host THP-1 macrophages
  pEC50: < 4.30
HepG2 cells
  pEC50: < 4.00
[2]
  pEC50: 5.00
[3]
  PFI: 8.0
Human serum albumin
  HSA Binding: 95.5%
[4]; [5]
  solubility: 194 µM (≈ 73.8 µg/mL)

## CC(C)Cc1n[nH]c2c1C(c1ccc(F)cc1)N(c1cccnc1)C2=O (centres unmarked) [Compound 32]
[1]
  Papp at 3 h: 47 ×10⁻⁶ cm/s
Host THP-1 macrophages
  pEC50: < 4.30
HepG2 cells
  pEC50: < 4.00
[2]
  pEC50: 4.60
[3]
  PFI: 7.2
Human serum albumin
  HSA Binding: 93.4%
[4]; [5]
  solubility: 182 µM (≈ 63.8 µg/mL)

## CC(C)Cc1n[nH]c2c1C(c1ccc(F)cc1)N(c1ccccn1)C2=O (centres unmarked) [Compound 33]
[1]
  Papp at 3 h: 20 ×10⁻⁶ cm/s
Host THP-1 macrophages
  pEC50: < 4.30
HepG2 cells
  pEC50: < 4.00
[2]
  pEC50: 4.70
[3]
  PFI: 8.5
Human serum albumin
  HSA Binding: 96.6%
[4]; [5]
  solubility: 219 µM (≈ 76.7 µg/mL)

## COc1ccc(CN2C(=O)c3[nH]nc(CC(C)C)c3C2c2ccc(F)cc2)cc1 (centres unmarked) [Compound 34]
[1]
  Papp at 3 h: 55 ×10⁻⁶ cm/s
Host THP-1 macrophages
  pEC50: 4.50
HepG2 cells
  pEC50: 4.30
[2]
  pEC50: 4.90
[3]
  PFI: 9.0
Human serum albumin
  HSA Binding: 98.2%
[4]; [5]
  solubility: 45 µM (≈ 17.7 µg/mL)

## Cc1ccc(CN2C(=O)c3[nH]nc(CC(C)C)c3C2c2ccc(F)cc2)o1 (centres unmarked) [Compound 35]
[1]
  Papp at 3 h: 37 ×10⁻⁶ cm/s
Host THP-1 macrophages
  pEC50: 4.40
HepG2 cells
  pEC50: 4.30
[2]
  pEC50: 4.80
[3]
  PFI: 8.9
Human serum albumin
  HSA Binding: 97.2%
[4]; [5]
  solubility: 19 µM (≈ 6.98 µg/mL)

## COC1CCC(N2C(=O)c3[nH]nc(CC(C)C)c3C2c2ccc(F)cc2)CC1 (centres unmarked) [Compound 36]
[1]
  Papp at 3 h: 57 ×10⁻⁶ cm/s
Host THP-1 macrophages
  pEC50: < 4.30
HepG2 cells
  pEC50: < 4.00
[2]
  pEC50: 4.60
[3]
  PFI: 7.3
Human serum albumin
  HSA Binding: 92.1%
[4]; [5]
  solubility: ≥ 450 µM

## CC(C)Cc1n[nH]c2c1C(c1ccc(F)cc1)N(C1CCC(N(C)C)CC1)C2=O (centres unmarked) [Compound 37]
[1]
  Papp at 3 h: 13 ×10⁻⁶ cm/s
Host THP-1 macrophages
  pEC50: < 4.30
HepG2 cells
  pEC50: < 4.00
[2]
  pEC50: 4.60
[3]
  PFI: 4.6
Human serum albumin
  HSA Binding: 81.1%
[4]; [5]
  solubility: ≥ 446 µM

## CC(C)Cc1n[nH]c2c1C(c1ccc(F)cc1)N(C1CCOCC1)C2=O (centres unmarked) [Compound 38]
[1]
  Papp at 3 h: 49 ×10⁻⁶ cm/s
Host THP-1 macrophages
  pEC50: < 4.30
HepG2 cells
  pEC50: < 4.00
[2]
  pEC50: 4.50
[3]
  PFI: 6.5
Human serum albumin
  HSA Binding: 90.2%
[4]; [5]
  solubility: ≥ 381 µM

## CC(C)Cc1n[nH]c2c1C(c1ccc(F)cc1)N(CC1CCN(C)C1)C2=O (centres unmarked) [Compound 40]
[1]
  Papp at 3 h: < 1 ×10⁻⁶ cm/s
Host THP-1 macrophages
  pEC50: < 4.30
HepG2 cells
  pEC50: < 4.00
[2]
  pEC50: < 4.30
[3]
  PFI: 4.8
Human serum albumin
  HSA Binding: 77.5%
[4]; [5]
  solubility: ≥ 351 µM

## COCCN1C(=O)c2[nH]nc(CC(C)C)c2C1c1ccc(F)cc1 (centres unmarked) [Compound 41]
[1]
  Papp at 3 h: 52 ×10⁻⁶ cm/s
Host THP-1 macrophages
  pEC50: < 4.30
HepG2 cells
  pEC50: < 4.00
[2]
  pEC50: < 4.30
[3]
  PFI: 6.7
Human serum albumin
  HSA Binding: 90.2%
[4]; [5]
  solubility: ≥ 421 µM

## COc1ccc(N2C(=O)c3[nH]nc(CC(C)C)c3C2c2ccc(F)cc2)c(OC)c1 (centres unmarked) [Compound 43]
[1]
  Papp at 3 h: 17 ×10⁻⁶ cm/s
Host THP-1 macrophages
  pEC50: 4.50
HepG2 cells
  pEC50: 4.20
[2]
  pEC50: 4.70
[3]
  PFI: 8.5
Human serum albumin
  HSA Binding: 96.2%
[4]; aqueous medium
  solubility: 138 µM (≈ 56.5 µg/mL)

## COc1ccc(N2C(=O)c3[nH]nc(CC(C)C)c3C2c2ccc(Cl)cc2)cc1 (centres unmarked) [Compound 47]
[1]
  Papp at 3 h: 33 ×10⁻⁶ cm/s
Host THP-1 macrophages
  pEC50: 4.80
HepG2 cells
  pEC50: 4.30
[2]
  pEC50: 5.40
[3]
  PFI: 9.2
Human serum albumin
  HSA Binding: 96.9%
[4]; [5]
  solubility: 22 µM (≈ 8.71 µg/mL)

## COc1ccc(N2C(=O)c3[nH]nc(CC(C)C)c3C2c2ccc(Br)cc2)cc1 (centres unmarked) [Compound 48]
[1]
  Papp at 3 h: 42 ×10⁻⁶ cm/s
Host THP-1 macrophages
  pEC50: 4.80
HepG2 cells
  pEC50: 4.30
[2]
  pEC50: 5.20
[3]
  PFI: 9.3
Human serum albumin
  HSA Binding: 97.2%
[4]; [5]
  solubility: 9 µM (≈ 3.96 µg/mL)

## COc1ccc(N2C(=O)c3[nH]nc(CC(C)C)c3C2c2ccc(C(F)(F)F)cc2)cc1 (centres unmarked) [Compound 49]
[1]
  Papp at 3 h: 21 ×10⁻⁶ cm/s
Host THP-1 macrophages
  pEC50: 4.80
HepG2 cells
  pEC50: 4.30
[2]
  pEC50: 5.10
[3]
  PFI: 9.3
Human serum albumin
  HSA Binding: 96.9%
[4]; [5]
  solubility: 12 µM (≈ 5.15 µg/mL)

## COc1ccc(N2C(=O)c3[nH]nc(CC(C)C)c3C2c2ccc(C(=O)O)cc2)cc1 (centres unmarked) [Compound 50]
[1]
  Papp at 3 h: < 0.3 ×10⁻⁶ cm/s
Host THP-1 macrophages
  pEC50: < 4.30
HepG2 cells
  pEC50: < 4.00
[2]
  pEC50: < 4.30
[3]
  PFI: 4.5
Human serum albumin
  HSA Binding: 90.7%
[4]; [5]
  solubility: ≥ 470 µM

## COC(=O)c1ccc(C2c3c(CC(C)C)n[nH]c3C(=O)N2c2ccc(OC)cc2)cc1 (centres unmarked) [Compound 51]
[1]
  Papp at 3 h: 38 ×10⁻⁶ cm/s
Host THP-1 macrophages
  pEC50: 4.40
HepG2 cells
  pEC50: 4.20
[2]
  pEC50: 4.60
[3]
  PFI: 8.2
Human serum albumin
  HSA Binding: 95%
[4]; [5]
  solubility: 44 µM (≈ 18.5 µg/mL)

## COc1ccc(N2C(=O)c3[nH]nc(CC(C)C)c3C2C2CCCCC2)cc1 (centres unmarked) [Compound 52]
[1]
  Papp at 3 h: 33 ×10⁻⁶ cm/s
Host THP-1 macrophages
  pEC50: 4.60
HepG2 cells
  pEC50: 4.30
[2]
  pEC50: 5.10
[3]
  PFI: 8.5
Human serum albumin
  HSA Binding: 97.6%
[4]; [5]
  solubility: 29 µM (≈ 10.7 µg/mL)

## COc1ccc(N2C(=O)c3[nH]nc(CC(C)C)c3C2C2CCCC2)cc1 (centres unmarked) [Compound 53]
[1]
  Papp at 3 h: 59 ×10⁻⁶ cm/s
Host THP-1 macrophages
  pEC50: 4.70
HepG2 cells
  pEC50: < 4.00
[2]
  pEC50: 4.90
[3]
  PFI: 8.1
Human serum albumin
  HSA Binding: 96.3%
[4]; [5]
  solubility: 119 µM (≈ 42.1 µg/mL)

## COc1ccc(N2C(=O)c3[nH]nc(CC(C)C)c3C2c2ccccc2F)cc1 (centres unmarked) [Compound 54]
[1]
  Papp at 3 h: 23 ×10⁻⁶ cm/s
Host THP-1 macrophages
  pEC50: 4.50
HepG2 cells
  pEC50: 4.50
[2]
  pEC50: 5.49
[3]
  PFI: 8.6
Human serum albumin
  HSA Binding: 97.3%
[4]; [5]
  solubility: 75 µM (≈ 28.5 µg/mL)
